Several values for one entry are separate records, joined by “and”; a condition that tells them apart may be missing. Equal values may be shown once. Read-outs that look alike come from different tables or passages of the source. Marks after values point to notes of the source that are not given here.
Legend:
[1] = Lucigenin Cl−/NO3− exchange assay in LUVs; conditions: Cl− transport, 0.4 mM POPC/cholesterol 7:3 LUVs, Hill fit at 270 s
Protocol: Given our objective was to use such transport behaviour as a method to disrupt anion homeostasis in bacteria, we also conducted anion transport assays in Large Unilamellar Liposomes (LUVs) using the well-established Lucigenin-based Cl^−/NO3^− exchange assay.[40] Briefly, LUVs containing the chloride sensitive dye lucigenin in a NaNO3 solution were prepared and a NaCl pulse was added to create a chloride concentration gradient. Upon addition of the putative transporter, the quenching of the fluorescence of lucigenin was monitored over time to assess Cl^− influx.
Lucigenin Cl-/NO3- anion exchange assay
LUV preparation and Lucigenin assays were carried out following procedures outlined by Valkenier and co-workers.8 Large unilamellar liposomes (LUVs) were synthesized using 1-palmitoyl-2-oleoyl-sn-glycero-3-phosphocholine (POPC)(11.2 µmol, soln. in CHCl3) and Cholesterol (4.8 µmol) mixed in a ratio of 7:3. This mixture was brought to dryness under gentle vacuum and subsequently, the mixture was rehydrated in an aqueous Lucigenin solution (1 mL, 0.8mM lucigenin in 225 mM NaNO3) and stirred for 1 h to obtain heterogeneous vesicles. After that, the vesicles underwent 9 freeze-thaw cycles and were extruded through a […] polycarbonate membrane 29 times to obtain monodisperse LUVs. A Sephadex G-100 size-exclusion column was employed to remove any unencapsulated lucigenin. The collected liposomes were diluted to 40 mL with 225 mM NaNO3 to obtain a homogeneous 0.4 mM liposome solution. Lucigenin fluorescence quenching was monitored in a time dependent manner using an Agilent Spectrofluorimeter to access Cl- influx (λ ex = 430 nm, λem = 505 nm).
Cl- transport behaviour was initiated at t=0 s by adding each compound as a solvate in DMSO followed by a 25 mM NaCl pulse (75µL, 1 M NaCl in […] NaNO3) to a 3 mL liposome solution. The data was collected for at least 600 s and then Triton X-100 (5% w/w in water) was added to lyse the liposomes, and normalize to 100% efflux. The recorded data was normalised and the fraction fluorescence intensity at 270 s of each tested concentration of transporters (mol%) was plotted against transporter concentration (mol%). The data obtained was fitted to the Hill equation to obtain the EC50 value at 270 s (the concentration to obtain the half maximum effect) by using Originlab 2024b or Graphpad Prism 10:
y = START + (END ‒ START) ∗ xn/(kn + xn)
Where n is the Hill coefficient, k presents the EC 50 value.

[2] = system: methicillin-resistant S. aureus (MRSA); test: Growth inhibition assay, MRSA; type: cell-based, Staphylococcus aureus; conditions: 24 h
Protocol: To determine IC50/80 values, growth (optical density) of S. aureus, methicillin-resistant S. aureus (MRSA), P. aeruginosa, and K. pneumoniae when treated with a range of concentrations of each active compound in vitro was measured at 600 nm after a 24 h incubation period at 37 °C. Each compound was studied for activity below […], and those showing little activity above 200 μM, were noted as such, and omitted from further study.
Staphylococcus aureus culture conditions […]
Methicillin-resistant Staphylococcus aureus culture conditions
Methicillin-resistant S. aureus (clinical isolate – St. James’ University Hospital, Dublin) was cultured at 37 °C in Nutrient broth (Oxoid), containing 25 µg/mL Ampicillin in an orbital shaker at 200 rpm. Stocks were kept on nutrient agar containing 25 µg/mL Ampicillin, stored at 4 °C for up to 2 months, or as glycerol stocks (50/50 glycerol:culture), stored at -70 °C indefinitely. […]
Bacterial cultures were brought to early stationary phase overnight, in nutrient broth (containing 25/50 µg/mL Ampicillin for MRSA/K. pneumoniae, respectively) at 37 °C. Cultures were diluted to an OD600 = 0.01. Aliquots of Culture (100 µl) were added to 100 µL serially diluted compound (200 – 0.78 µM) in nutrient broth in a 96-well plate (Sarstedt, Germany).
Plates were incubated at 37 °C for 24 h and growth was measured at 600 nm, where growth was measured and represented relative to control. […]

S. aureus cells = test: Propidium iodide membrane integrity assay; type: cell-based, Staphylococcus aureus; conditions: for propidium iodide fluorescence vs basal (emission around 615 nm): two hours of treatment, various concentrations
Description: To study whether compounds 1, 2, and 4 do indeed accumulate in the membrane, and yield a depolarising effect, or compromise its integrity we utilised propidium iodide (PI), a red-emissive (λmax(em) = 617 nm) cell-impermeable fluorophore. PI undergoes a fluorescence increase upon internalisation and DNA intercalation, and thus under ordinary circumstances PI fluorescence is quenched, but if membrane integrity is compromised, a fluorescence “turn-on” occurs. After two hours of treatment with 1, 2, and 4, PI fluorescence was compared to basal fluorescence from the fluorophore. […] This clear membrane depolarising effect was less obvious for 4, and follows the trend of the observed transport, and toxicity results. However, it is of note that each compound can effectively promote an influx of PI through membrane depolarisation.
To further investigate the rate of this phenomenon, PI fluorescence was monitored as a function of time, upon treatment of S. aureus with 1 at a concentration of 50 μM (Fig. 4B).
1 mL aliquots of S. aureus cultures brought to early stationary phase overnight were brought to an OD600 = 0.2 and 100 µL of this suspension was added to 96 well plates, whereafter 100 µL of PBS containing; no compound (- control), or compound (2x desired concentration) was added to the suspension. The resultant mixture was incubated at 37 °C for 2 hr whereafter fluorescence intensity from PI (DNA bound form) was quanitified (λ exc/em = 535/615 nm) using a Clariostar plate reader. In the case of time course experiments, Measurement cycles were set for two hours, following addition of the respective compound (T0). Fluorescence was subsequently plotted as F/F0. […]
Statistical analysis of biological data: All biological experiments were carried out in triplicate, making use of cells of differing origins, on three independent occasions. With experiments concerning the use of 96-well plates, all experiments were carried out as three biological replicates of eight technical replicates. All data is presented as the mean + SEM of each replicate, unless specified otherwise. All statistical analysis and significance determination was carried out using the Graphpad Prism 8.0.1 software package.

[3] = parameters: method as in PMID 34709282; conditions: Cl− transport; Reported by Gale and co-workers; cited from earlier work
[4] = Staphylococcus aureus, MRSA, read-out: MRSA IC50, growth (OD 600 nm) relative to control, 24 h, 37 °C
[5] = Staphylococcus aureus, MRSA, read-out: MRSA IC80, growth (OD 600 nm) relative to control, 24 h, 37 °C

Structure (SMILES)	EC50 (mol%) [1]	IC50 [2, 4]	IC80 [2, 5]	IC50 ([2]; read-out: MRSA IC50, growth (OD 600 nm) relative to control, 37 °C)	propidium iodide fluorescence as a function of time (S. aureus cells; 50 μM, over two hours)	propidium iodide fluorescence vs basal (emission around 615 nm) (S. aureus cells)	MRSA IC80 ([2]; growth (OD 600 nm) relative to control, 37 °C)	EC50 (mol%) [3]	IC80 ([2]; read-out: MRSA IC80, growth (OD 600 nm) relative to control, 37 °C)
O=c1c(Nc2cc(C(F)(F)F)cc(C(F)(F)F)c2)c(NC23CC4CC(CC(C4)C2)C3)c1=O [Compound 1]	0.0836 mol% and 0.084 mol%	1.56 µM	200 µM	1.6 µM	increase in the fluorescence of PI	greatly increased	–	–	–
O=c1c(Nc2ccc(Cl)c(Cl)c2)c(NC23CC4CC(CC(C4)C2)C3)c1=O [Compound 2]	0.0993 mol%	25 µM	> 200 µM	–	–	greatly increased	exceeded the testing range	–	–
O=c1c(Nc2ccc([N+](=O)[O-])cc2)c(NC23CC4CC(CC(C4)C2)C3)c1=O [Compound 4]	–	50 µM	> 200 µM	–	–	less obvious	–	0.031 ^a mol%	> 200 µM

— publication PMC11788822, “Uncovering the potent antimicrobial activity of squaramide based anionophores – chloride transport and membrane disruption” (Chemical Science, 2025)
